Source: patent publication US8604053B2, “TRPV1 antagonists” (AbbVie Inc., priority 2008, dated 2013)
pIC50: −log10 of the molar value.

What was measured:
[1] = molecular target: T1, human TRPV1 receptor (hTRPV1) (Homo sapiens, UniProt Q8NER1); assay: Capsaicin activation assay (Ca2+ influx, FLIPR); assay type: cell-based; details: hTRPV1 in 1321N1 cells, 0.05 μM capsaicin
T1 construct: expressed in transfected cells
Procedure: Dulbecco's modified Eagle medium (D-MEM) (with 4.5 mg/mL glucose) and fetal bovine serum were obtained from Hyclone Laboratories, Inc. (Logan, Utah). Dulbecco's phosphate-buffered saline (D-PBS) (with 1 mg/mL glucose and 3.6 mg/l Na pyruvate, without phenol red), L-glutamine, hygromycin B, and Lipofectamine® were obtained from Life Technologies (Grand Island, N.Y.). G418 sulfate was obtained from Calbiochem-Novabiochem Corp. (San Diego, Calif.). Capsaicin (8-methyl-N-vanillyl-6-nonenamide) was obtained from Sigma-Aldrich, Co. (St. Louis, Mo.). Fluo-4 AM (N-[4-[6-[(acetyloxy)methoxy]-2,7-difluoro-3-oxo-3H-xanthen-9-yl]-2-[2-[2-[bis[2-[(acetyloxy)methoxy]-2-oxyethyl]amino]-5-methyl-phenoxy[ethoxy]phenyl]-N-[2-[(acetyloxy)methoxy]-2-oxyethyl]-glycine, (acetyloxy)methyl ester) was purchased from Molecular Probes (Eugene, Oreg.).
The cDNAs for the human TRPV1 receptor (hTRPV1) were isolated by reverse transcriptase-polymerase chain reaction (RT-PCR) from human small intestine poly A+ RNA supplied by Clontech (Palo Alto, Calif.) using primers designed surrounding the initiation and termination codons identical to the published sequences (Hayes et al. Pain 2000, 88, 205-215). The resulting cDNA PCR products were subcloned into pClneo mammalian expression vector (Promega) and fully sequenced using fluorescent dye-terminator reagents (Prism, Perkin-Elmer Applied Biosystems Division) and a Perkin-Elmer Applied Biosystems Model 373 DNA sequencer or Model 310 genetic analyzer. Expression plasmids encoding the hTRPV1 cDNA were transfected individually into 1321N1 human astrocytoma cells using Lipofectamine®. Forty-eight hours after transfection, the neomycin-resistant cells were selected with growth medium containing 800 μg/mL Geneticin (Gibco BRL). Surviving individual colonies were isolated and screened for TRPV1 receptor activity. Cells expressing recombinant homomeric TRPV1 receptors were maintained at 37° C. in D-MEM containing 4 mM L-glutamine, 300 μg/mL G418 (Cal-biochem) and 10% fetal bovine serum under a humidified 5% CO2 atmosphere.
The functional activity of compounds at the TRPV1 receptor was determined with a Ca^2+ influx assay and measurement of intracellular Ca^2+ levels ([Ca^2+]i). All compounds were tested over an 11-point half-log concentration range. Compound solutions were prepared in D-PBS (4× final concentration), and diluted serially across 96-well v-bottom tissue culture plates using a Biomek 2000 robotic automation workstation (Beckman-Coulter, Inc., Fullerton, Calif.). A 0.2 μM solution of the TRPV1 agonist capsaicin was also prepared in D-PBS. The fluorescent Ca^2+ chelating dye Fluo-4 AM was used as an indicator of the relative levels of [Ca^2+]i in a 96-well format using a Fluorescence Imaging Plate Reader (FLIPR)(Molecular Devices, Sunnyvale, Calif.). Cells were grown to confluency in 96-well black-walled tissue culture plates. Then, prior to the assay, the cells were loaded with 100 μL per well of Fluo-4 AM (2 μM, in D-PBS) for 1-2 hours at 23° C. Washing of the cells was performed to remove extracellular Fluo-4 AM (2×1 mL D-PBS per well), and afterward, the cells were placed in the reading chamber of the FLIPR instrument. 50 μL of the compound solutions were added to the cells at the 10 second time mark of the experimental run. Then, after a 3-minute time delay, 50 μL of the capsaicin solution was added at the, 190 second time mark (0.05 μM final concentration)(final volume=200 μL) to challenge the TRPV1 receptor. Time length of the experimental run was 240 seconds. Fluorescence readings were made at 1 to 5 second intervals over the course of the experimental run. The peak increase in relative fluorescence units (minus baseline) was calculated from the 190 second time mark to the end of the experimental run, and expressed as a percentage of the 0.05 μM capsaicin (control) response. […]

[2] = Rat telemetry protocol, core body temperature; assay type: in vivo; details: core body temperature of rats one hour post dosing, 100 μmol/kg p.o., relative to vehicle
Procedure: Male, Sprague Dawley rats, 225-250 grams were anesthetized with Sevoflurane (Abbott Laboratories). Rats were placed on a heating pad and covered with a sterile surgical drape. A ventral midline abdominal incision was made and sterile cotton tip applicators were used to gently move internal tissue and expose the abdominal aorta for implantation of the telemetry catheter (Data Sciences International; TL11M2-050-PXT). Blood flow was temporarily stopped to the lower extremities (5-7 min) with Diffenbach clamps to allow the insertion of the telemetry catheter into the abdominal aorta. Once inserted, a sterile cellulose patch was placed over the catheter/aorta and secured using a small amount of tissue adhesive (Vetbond, 3M). Once catheter placement was complete, the clamps were removed and blood flow was restored to the lower extremities. Thetransmitter was placed in the intraperitoneal cavity. The transmitter suture rib was sewn into the abdominal sutures to secure it in place. The skin was closed using sterile wound clips and the animal removed from Sevoflurane. Buprenex ([…] s.c.; Phoenix) was administered for post-operative analgesia. Animals were maintained on a heating pad until ambulatory, and then individually housed with food and water ad lib. Surgical staples were removed after 7-10 days post-implantation. Rats were allowed a 2-week post-surgical recovery period before treatment with test compound. Oral dosing (p.o.) was at time zero, with rats receiving a single dose of vehicle (10% EtOH, 20% Tween-80, 70% PEG-400) or a 100 μmol/kg dose of compound dissolved in vehicle. Temperature measurements were recorded every 15 minutes for the duration of the study (24 hours).
Representative compounds described herein have the novel property of having limited transient temperature effect on core body temperature of a mammal (e.g. rats). For example, compounds tested alter core body temperature of rats by less than about +0.5° C. at about 1 hour after administration of a single dose (100 μmol/kg) of the test compounds orally, for example, in the range from about −2.5° C. to less than about +0.5° C., from about −0.5° C. to less than about +0.5° C.; or from about −0.3° C. to about +0.3° C.
The term “core body temperature” as used herein, means the temperature measured in the intraperitoneal cavity.

[3] = molecular target: T2, CYP2C9 (Homo sapiens, UniProt P11712); assay: CYP2C9 inhibition assay; assay type: in vitro ADME; details: pH 7.4, probe Luciferin-H (100 μM final), human liver microsomes, substrate Luciferin-H, read-out: CYP2C9 % inh @ 2.2 μM
T2 construct: human liver microsomes (BD Gentest); tissue BD Gentest; host or cells: human liver microsomes
T2 sequence (P11712 whole entry): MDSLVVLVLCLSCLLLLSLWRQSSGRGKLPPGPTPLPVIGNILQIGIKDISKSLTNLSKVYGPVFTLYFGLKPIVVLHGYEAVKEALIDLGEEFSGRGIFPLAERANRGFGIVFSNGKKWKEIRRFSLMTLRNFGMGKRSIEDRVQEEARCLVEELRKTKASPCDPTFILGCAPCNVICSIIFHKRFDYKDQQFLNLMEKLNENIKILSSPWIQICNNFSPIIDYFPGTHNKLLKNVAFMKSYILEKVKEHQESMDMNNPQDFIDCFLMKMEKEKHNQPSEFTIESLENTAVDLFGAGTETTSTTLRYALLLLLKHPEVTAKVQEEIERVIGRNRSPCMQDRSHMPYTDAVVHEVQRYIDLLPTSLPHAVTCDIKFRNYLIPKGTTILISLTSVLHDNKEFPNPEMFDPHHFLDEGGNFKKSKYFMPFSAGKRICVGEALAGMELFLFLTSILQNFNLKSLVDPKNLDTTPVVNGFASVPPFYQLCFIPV
Procedure: Stock solutions of test compounds were assayed in 96-well format for their ability to inhibit CYP2C9, CYP2D6, or CYP3A4 mediated metabolism of test substrates. Luciferin-H was used as the substrate for CYP2C9; 3-[2-(N,N-diethyl-N-methylammonium)ethyl]-7-methoxy-4-methylcoumarin (AMMC) was used as the substrate for CYP2D6; 7-benzyloxyquiniline (BZQ) was used as the substrate for CYP3A4. For each subtype, positive controls (sulphaphenazole in the case of CYP2C9; quinidine in the case of CYP2D6, ketoconazole in the case of CYP3A4) were used to validate assay results run in duplicate.
Pre-Incubation Mixture Preparation for CYP2C9 and CYP2D6: A pre-incubation mixture was prepared by combining 100 mM phosphate buffer (9.12 mL; pH 7.4), human liver microsomes (BD Gentest, 240 itt; final concentration: 0.4 mg/mL), and 10 mM nicotinamide adenine dinucleotide phosphate in 65.4 mM MgCl2 hexahydrate (120 μL; final concentration: 125 μM and 818 μM, respectively). To this was mixture is added a ‘regeneration’ mixture (120 μL) of 333 mM glucose-6-phosphate and 40 U/mL glucose-6-phosphate dehydrogenase in 5 mM sodium citrate (final concentration: 4 mM, 0.5 U/mL, and 0.06 mM, respectively).
Substrate Mixture Preparation for CYP2C9: To a solution of 25 mM phosphate buffer, (2.16 mL, pH 7.4) was added 5 mM Luciferin-H (Promega P450 Glo Assay V8792, 240 μL; final solution concentration 0.5 mM, final assay concentration 100 μM).
CYP2C9 Inhibiton Assay: To each well in the assay plate containing varying concentrations of test compound or control compound in DMSO (10 μL) Pre-Incubation Mixture (40 itt) was added to the wells and the assay plate was pre-incubated for 10 minutes at 37° C., with shaking or rocking. CYP2C9 Substrate Mixture (10 μL) was added to all wells and the assay plate was incubated for an additional 25 minutes at 37° C., with shaking or rocking. Final DMSO concentration was 1%. Luciferin-H detection reagent (Promega kit V8792, 50 μL) was added to all wells. The plate was then vortexed at ambient temperature for between 20 minutes and 2 hours, and the luminescence of each well was then read and recorded.

T1 sequence (Q8NER1 whole entry): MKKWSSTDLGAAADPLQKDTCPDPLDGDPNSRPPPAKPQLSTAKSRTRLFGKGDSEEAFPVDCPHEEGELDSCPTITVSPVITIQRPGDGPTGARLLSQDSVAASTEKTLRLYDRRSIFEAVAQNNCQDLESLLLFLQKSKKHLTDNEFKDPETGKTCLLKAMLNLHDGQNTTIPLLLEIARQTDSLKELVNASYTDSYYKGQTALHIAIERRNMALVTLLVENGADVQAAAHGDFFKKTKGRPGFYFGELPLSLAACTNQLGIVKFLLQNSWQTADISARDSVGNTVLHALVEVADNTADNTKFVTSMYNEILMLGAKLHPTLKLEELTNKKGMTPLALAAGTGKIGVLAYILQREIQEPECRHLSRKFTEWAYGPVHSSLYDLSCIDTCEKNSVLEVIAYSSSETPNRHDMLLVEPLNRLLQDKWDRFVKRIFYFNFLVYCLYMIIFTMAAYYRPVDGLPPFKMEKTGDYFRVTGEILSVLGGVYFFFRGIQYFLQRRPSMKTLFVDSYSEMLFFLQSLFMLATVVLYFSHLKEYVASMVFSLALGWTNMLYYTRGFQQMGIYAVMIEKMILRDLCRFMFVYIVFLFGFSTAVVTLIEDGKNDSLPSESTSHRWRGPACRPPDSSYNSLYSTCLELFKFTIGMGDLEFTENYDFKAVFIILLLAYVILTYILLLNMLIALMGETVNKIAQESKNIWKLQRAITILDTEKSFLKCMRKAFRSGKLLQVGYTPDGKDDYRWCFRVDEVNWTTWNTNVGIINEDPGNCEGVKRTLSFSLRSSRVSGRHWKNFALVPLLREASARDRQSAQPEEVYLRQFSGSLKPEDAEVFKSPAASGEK

| Compound | pIC50 [1] | inhibition at 25 min, 2.2 µM [3] [%] | Δ Temp (° C.) [2] [°C] |
| --- | --- | --- | --- |
| CCC1(CC)C[C@@H](NC(=O)Nc2cccc3c2cnn3C)c2cccc(F)c2O1 [Example 50, N-[(4R)-2,2-diethyl-8-fluoro-3,4-dihydro-2H-chromen-4-yl]-N′-(1-methyl-1H-indazol-4-yl)urea] | 7.46 | – | 0.1 |
| CCC1(CC)C[C@@H](NC(=O)Nc2cccc3[nH]ncc23)c2cc(F)ccc2O1 [Example 58, N-[(4R)-2,2-diethyl-6-fluoro-3,4-dihydro-2H-chromen-4-yl]-N′-1H-indazol-4-ylurea] | 7.72 | – | 0.3 |
| CCCC1(CCC)C[C@@H](NC(=O)Nc2cccc3c2cnn3C)c2cccc(F)c2O1 [Example 67, N-[(4R)-8-fluoro-2,2-dipropyl-3,4-dihydro-2H-chromen-4-yl]-N′-(1-methyl-1H-indazol-4-yl)urea] | 7.74 | – | −0.2 |
| O=C(Nc1cccc2[nH]ncc12)N[C@@H]1CCOc2c(OC(F)(F)F)cccc21 [Example 70, N-1H-indazol-4-yl-N′-[(4R)-8-(trifluoromethoxy)-3,4-dihydro-2H-chromen-4-yl]urea] | 8.30 | – | 0.3 |
| Cn1ncc2c(NC(=O)N[C@@H]3CC(CF)(CF)Oc4c(OC(F)(F)F)cccc43)cccc21 [Example 88, N-[(4R)-2,2-bis(fluoromethyl)-8-(trifluoromethoxy)-3,4-dihydro-2H-chromen-4-yl]-N′-(1-methyl-1H-indazol-4-yl)urea] | 8.05 | – | −0.3 |
| CC1(C)C[C@@H](NC(=O)Nc2cccc3cnc(N)cc23)c2ccc(F)cc2O1 [Example 106, N-(3-aminoisoquinolin-5-yl)-N′-[(4R)-7-fluoro-2,2-dimethyl-3,4-dihydro-2H-chromen-4-yl]urea] | 7.68 | 13 | 0.3 |

More lines, main results first:

| pIC50 [1] | inhibition at 25 min, 2.2 µM [3] [%] | Compound | Δ Temp (° C.) [2] [°C] |
| --- | --- | --- | --- |
| 7.55 | – | O=C(Nc1cccc2c1C[C@H](O)CC2)N[C@@H]1CC2(CCC2)Oc2ccc(F)cc21 [Example 6, N-[(4R)-6-fluoro-3,3′,4,4′-tetrahydro-2′H-spiro[chromene-2,1′-cyclobutan]-4-yl]-N′-[(7R)-7-hydroxy-5,6,7,8-tetrahydronaphthalen-1-yl]urea] | 0.2 |
| 7.11 | – | Cn1ncc2c(NC(=O)N[C@@H]3CC4(CCC4)Oc4ccc(F)cc43)cccc21 [Example 7, N-[(4R)-6-fluoro-3,3′,4,4′-tetrahydro-2′H-spiro[chromene-2,1′-cyclobutan]-4-yl]-N′-(1-methyl-1H-indazol-4-yl)urea] | 0.1 |
| 7.12 | – | O=C(Nc1cccc2[nH]ncc12)N[C@@H]1CC2(CCC2)Oc2ccc(F)cc21 [Example 8, N-[(4R)-6-fluoro-3,3′,4,4′-tetrahydro-2′H-spiro[chromene-2,1′-cyclobutan]-4-yl]-N′-1H-indazol-4-ylurea] | 0.1 |
| 7.80 | – | CC1(C)C[C@@H](NC(=O)Nc2cccc3[nH]ncc23)c2ccc(C(F)(F)F)cc2O1 [Example 41, N-[(4R)-2,2-dimethyl-7-(trifluoromethyl)-3,4-dihydro-2H-chromen-4-yl]-N′-1H-indazol-4-ylurea] | −2.5 |
| 8.00 | – | CCC1(CC)C[C@@H](NC(=O)Nc2cccc3c(C)nccc23)c2cc(F)ccc2O1 [Example 86, N-[(4R)-2,2-diethyl-6-fluoro-3,4-dihydro-2H-chromen-4-yl]-N′-(1-methylisoquinolin-5-yl)urea] | −1.7 |
